According to ChEMBL document CHEMBL1134476, “Pharmacological and behavioral analysis of the effects of some bivalent ligand-based monoamine reuptake inhibitors” (J Med Chem, 2001):

Key:
Format in all cases: subcellular, Brain
[1] = target: T1, Sodium-dependent dopamine transporter (Rattus norvegicus, UniProt P23977); assay: Inhibition of high affinity DA uptake into rat synaptosomes using [3H]DA
[2] = target: T2, Norepinephrine transporter (Rattus norvegicus, UniProt Q9WTR4); assay: Ability to inhibit high affinity uptake of norepinephrine transporter into the nerve endings of rat synaptosomes using [3H]NE as a radioligand
[3] = target: T1, Sodium-dependent dopamine transporter; assay: Displacement of [3H]mazindol binding to dopamine transporter (DAT) in rat synaptosomes
[4] = target: Sodium-dependent serotonin transporter (Rattus norvegicus, UniProt P31652); assay: Inhibition of high affinity serotonin uptake into rat synaptosomes using [3H]5-HT
[5] = target: T2, Norepinephrine transporter; assay: Ability to inhibit high affinity uptake of norepinephrine transporter into the nerve endings of rat synaptosomes using [3H]NE radioligand
[6] = target: T1, Sodium-dependent dopamine transporter; assay: Ability to inhibit high affinity uptake of DA into the nerve endings of rat synaptosomes using [3H]DA as a radioligand

T2 sequence (Q9WTR4 whole entry): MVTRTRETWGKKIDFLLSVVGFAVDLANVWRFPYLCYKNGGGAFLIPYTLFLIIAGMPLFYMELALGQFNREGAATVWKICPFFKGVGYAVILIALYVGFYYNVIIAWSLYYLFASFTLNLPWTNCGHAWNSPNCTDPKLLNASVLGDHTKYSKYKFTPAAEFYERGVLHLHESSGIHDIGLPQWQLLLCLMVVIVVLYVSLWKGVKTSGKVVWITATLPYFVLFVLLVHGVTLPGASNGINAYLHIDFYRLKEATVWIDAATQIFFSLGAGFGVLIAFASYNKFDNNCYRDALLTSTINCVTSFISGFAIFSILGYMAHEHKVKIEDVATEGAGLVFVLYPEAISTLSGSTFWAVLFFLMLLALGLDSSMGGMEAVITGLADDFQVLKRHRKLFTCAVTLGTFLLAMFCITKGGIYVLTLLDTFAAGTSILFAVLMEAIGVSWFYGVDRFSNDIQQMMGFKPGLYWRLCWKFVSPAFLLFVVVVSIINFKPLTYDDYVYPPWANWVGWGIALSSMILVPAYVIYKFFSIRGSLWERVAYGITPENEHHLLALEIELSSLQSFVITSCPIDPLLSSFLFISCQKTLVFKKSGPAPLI
T1 sequence (P23977 whole entry): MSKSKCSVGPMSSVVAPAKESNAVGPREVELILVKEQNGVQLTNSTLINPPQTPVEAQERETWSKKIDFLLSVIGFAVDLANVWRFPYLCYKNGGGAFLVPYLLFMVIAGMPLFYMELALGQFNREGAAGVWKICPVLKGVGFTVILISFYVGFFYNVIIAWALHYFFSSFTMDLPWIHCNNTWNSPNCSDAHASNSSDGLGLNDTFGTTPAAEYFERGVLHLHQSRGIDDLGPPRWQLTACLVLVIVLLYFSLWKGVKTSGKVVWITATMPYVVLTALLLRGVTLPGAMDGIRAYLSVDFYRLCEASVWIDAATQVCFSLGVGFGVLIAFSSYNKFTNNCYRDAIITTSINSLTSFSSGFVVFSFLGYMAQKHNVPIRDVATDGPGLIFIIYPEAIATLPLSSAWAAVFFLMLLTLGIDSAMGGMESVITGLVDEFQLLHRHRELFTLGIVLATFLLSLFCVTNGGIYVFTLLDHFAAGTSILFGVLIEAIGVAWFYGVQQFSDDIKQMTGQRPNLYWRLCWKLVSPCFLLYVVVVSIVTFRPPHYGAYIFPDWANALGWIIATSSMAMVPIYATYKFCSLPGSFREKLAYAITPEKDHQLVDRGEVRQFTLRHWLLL
Sequence of Sodium-dependent serotonin transporter (P31652 whole entry): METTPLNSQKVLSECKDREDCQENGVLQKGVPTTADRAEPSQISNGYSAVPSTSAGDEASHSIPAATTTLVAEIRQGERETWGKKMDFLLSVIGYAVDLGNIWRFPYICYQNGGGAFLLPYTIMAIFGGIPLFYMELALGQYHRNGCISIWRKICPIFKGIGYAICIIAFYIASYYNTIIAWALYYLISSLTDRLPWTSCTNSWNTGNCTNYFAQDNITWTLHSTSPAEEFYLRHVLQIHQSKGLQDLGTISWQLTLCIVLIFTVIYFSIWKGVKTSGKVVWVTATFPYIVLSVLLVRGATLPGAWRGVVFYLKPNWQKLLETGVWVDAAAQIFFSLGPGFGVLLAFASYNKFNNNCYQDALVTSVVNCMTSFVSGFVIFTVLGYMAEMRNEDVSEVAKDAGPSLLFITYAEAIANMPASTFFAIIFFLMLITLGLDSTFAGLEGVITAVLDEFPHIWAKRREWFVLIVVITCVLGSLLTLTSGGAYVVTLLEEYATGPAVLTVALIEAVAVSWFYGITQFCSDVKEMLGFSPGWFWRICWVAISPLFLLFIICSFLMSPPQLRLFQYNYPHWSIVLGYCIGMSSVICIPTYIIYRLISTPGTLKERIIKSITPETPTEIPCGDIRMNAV

**Q.** With `CNC(=O)[C@H]1CN(C)CC[C@@H]1c1ccc(Cl)cc1` as the compound, how does the Ki [1] read?
**A.** > 9000 nM

**Q.** And the Ki [2]?
**A.** 4380 nM

**Q.** And the Ki [3]?
**A.** > 12000 nM

**Q.** And the Ki [4]?
**A.** > 53000 nM

**Q.** Which results are given for `CN1CC[C@@H](c2ccc(Cl)cc2)[C@H](C(=O)NCCCNC(=O)[C@@H]2CN(C)CC[C@H]2c2ccc(Cl)cc2)C1`?
**A.** Ki [1]: 5090 nM; Ki [2]: 373 nM; Ki [3]: > 6500 nM; Ki [4]: 342 nM

**Q.** How did the Ki [1] turn out when `COC(=O)[C@H]1CN(C)CC[C@@H]1c1ccc(Cl)cc1` was run?
**A.** 228 nM

**Q.** And the Ki [5]?
**A.** 90 nM

**Q.** What about the Ki [3] of the same compound?
**A.** 248 nM

**Q.** What about the Ki [4] of the same compound?
**A.** 5880 nM

**Q.** `CN1CC[C@H](c2ccc(Cl)cc2)[C@@H](C(=O)NCCCNC(=O)[C@H]2CN(C)CC[C@@H]2c2ccc(Cl)cc2)C1` was tested. Which Ki [1] did it give?
**A.** 14 nM

**Q.** And the Ki [2]?
**A.** 146 nM

**Q.** What about the Ki [3] of the same compound?
**A.** 8.4 nM

**Q.** What about the Ki [4] of the same compound?
**A.** 566 nM

**Q.** Which results are given for `CN1CC[C@H](c2ccc(Cl)cc2)[C@@H](C(=O)NCCCCCCCCNC(=O)[C@H]2CN(C)CC[C@@H]2c2ccc(Cl)cc2)C1`?
**A.** Ki [1]: 341 nM; Ki [2]: 1980 nM; Ki [3]: 294 nM; Ki [4]: 56 nM

**Q.** Which Ki [1] does the source give for `CN1CC[C@H](c2ccc(Cl)cc2)[C@@H](C(=O)NCCCCCNC(=O)c2ccc(Cl)cc2)C1` here?
**A.** 256 nM

**Q.** And the Ki [2]?
**A.** 551 nM

**Q.** What about the Ki [3] of the same compound?
**A.** 194 nM

**Q.** And the Ki [4]?
**A.** 159 nM

**Q.** How did the Ki [1] turn out when `COC(=O)[C@@H]1CN(C)CC[C@H]1c1ccc(Cl)cc1` was run?
**A.** 2890 nM

**Q.** What about the Ki [5] of the same compound?
**A.** 242 nM

**Q.** What about the Ki [3] of the same compound?
**A.** 1770 nM

**Q.** And the Ki [4]?
**A.** 3600 nM

**Q.** `CN1CC[C@H](c2ccc(Cl)cc2)[C@@H](C(=O)NCCCCCNC(=O)c2ccccc2)C1` was tested. Which Ki [1] did it give?
**A.** 465 nM

**Q.** And the Ki [2]?
**A.** 1200 nM

**Q.** And the Ki [3]?
**A.** 409 nM

**Q.** What about the Ki [4] of the same compound?
**A.** 494 nM

**Q.** Which Ki [1] does the source give for `CN1CC[C@H](c2ccc(Cl)cc2)[C@@H](C(=O)NCCCCCNC(=O)[C@H]2CN(C)CC[C@@H]2c2ccc(Cl)cc2)C1` here?
**A.** 39 nM

**Q.** And the Ki [2]?
**A.** 158 nM

**Q.** And the Ki [3]?
**A.** 103 nM

**Q.** What about the Ki [4] of the same compound?
**A.** 7 nM

**Q.** Which Ki [1] does the source give for `CN1CC[C@H](c2ccc(Cl)cc2)[C@@H](C(=O)NCCCCCNC(=O)/C=C/c2ccc(Cl)cc2)C1` here?
**A.** 253 nM

**Q.** What about the Ki [2] of the same compound?
**A.** 1080 nM

**Q.** What about the Ki [3] of the same compound?
**A.** 246 nM

**Q.** What about the Ki [4] of the same compound?
**A.** 133 nM

**Q.** Which results are given for `CN1CC[C@@H](c2ccc(Cl)cc2)[C@H](C(=O)NCCCCCNC(=O)[C@@H]2CN(C)CC[C@H]2c2ccc(Cl)cc2)C1`?
**A.** Ki [2]: 393 nM; Ki [3]: 1440 nM

**Q.** What does the source list for `CN1CC[C@H](c2ccc(Cl)cc2)[C@@H](C(=O)OCCCCCOC(=O)[C@H]2CN(C)CC[C@@H]2c2ccc(Cl)cc2)C1`?
**A.** Ki [1]: 56 nM; Ki [2]: 182 nM; Ki [3]: 64 nM; Ki [4]: 25 nM

**Q.** Which Ki [1] does the source give for `CN1CC[C@H](c2ccc(Cl)cc2)[C@@H](C(=O)NCCCCCCNC(=O)[C@H]2CN(C)CC[C@@H]2c2ccc(Cl)cc2)C1` here?
**A.** 75 nM

**Q.** What about the Ki [2] of the same compound?
**A.** 579 nM

**Q.** What about the Ki [3] of the same compound?
**A.** 402 nM

**Q.** What about the Ki [4] of the same compound?
**A.** 60 nM

**Q.** What does the source list for `CN1CC[C@@H](c2ccc(Cl)cc2)[C@H](C(=O)NCCCCCCCCNC(=O)[C@@H]2CN(C)CC[C@H]2c2ccc(Cl)cc2)C1`?
**A.** Ki [2]: 1040 nM; Ki [4]: 2.1 nM; Ki [6]: 3180 nM

**Q.** What does the source list for `CN1CC[C@H](c2ccc(Cl)cc2)[C@@H](C(=O)NCCCCCCCNC(=O)[C@H]2CN(C)CC[C@@H]2c2ccc(Cl)cc2)C1`?
**A.** Ki [1]: 190 nM; Ki [2]: 394 nM; Ki [3]: 348 nM; Ki [4]: 40 nM

**Q.** With `CN1CC[C@H](c2ccc(Cl)cc2)[C@@H](C(=O)NCCCCNC(=O)[C@H]2CN(C)CC[C@@H]2c2ccc(Cl)cc2)C1` as the compound, how does the Ki [1] read?
**A.** 33 nM

**Q.** And the Ki [2]?
**A.** 104 nM

**Q.** What about the Ki [3] of the same compound?
**A.** 81 nM

**Q.** What about the Ki [4] of the same compound?
**A.** 534 nM

**Q.** `CN1CC[C@H](c2ccc(Cl)cc2)[C@@H](C(=O)OCCCOC(=O)[C@H]2CN(C)CC[C@@H]2c2ccc(Cl)cc2)C1` was tested. Which Ki [1] did it give?
**A.** 108 nM

**Q.** What about the Ki [2] of the same compound?
**A.** 340 nM

**Q.** And the Ki [3]?
**A.** 68 nM

**Q.** What about the Ki [4] of the same compound?
**A.** 730 nM

**Q.** With `CNC(=O)[C@@H]1CN(C)CC[C@H]1c1ccc(Cl)cc1` as the compound, how does the Ki [1] read?
**A.** > 70000 nM

**Q.** What about the Ki [5] of the same compound?
**A.** 3110 nM

**Q.** And the Ki [3]?
**A.** > 39000 nM

**Q.** And the Ki [4]?
**A.** > 10000 nM

**Q.** What does the source list for `CN1CC[C@H](c2ccc(Cl)cc2)[C@@H](C(=O)OCCCCCCCCOC(=O)[C@H]2CN(C)CC[C@@H]2c2ccc(Cl)cc2)C1`?
**A.** Ki [1]: 142 nM; Ki [2]: 658 nM; Ki [3]: 920 nM; Ki [4]: 175 nM
